{
  "source": "patent US5935604A",
  "about": "(Danbiosyst UK Limited, priority 1993, dated 1999)",
  "origin": "cited, not measured here",
  "key": {"[1]": {"settings": "in vivo"}, "[2]": {"settings": "man, single doses of 1 mg"}, "[3]": {"settings": "nasal"}},
  "data": [
    {"compound": "Cc1ncccc1C1CCCN1C", "note": "(stereo not shown) [2-methyl nicotine]", "values": [
      {"measurement": "side-effects on the heart", "setting": "heart", "value": "reduced side-effects on the heart"}
    ]},
    {"compound": "CN1CCCC1c1cccnc1", "note": "(stereo not shown) [nicotine]", "values": [
      {"measurement": "nicotine peak plasma levels", "setting": "regular smokers of 15 or more cigarettes per day, daytime average", "value": "about 35 μg/l"},
      {"measurement": "dose of systemically available nicotine absorbed per cigarette", "setting": "regular smokers, average", "value": "about 1 mg"},
      {"measurement": "interval between taking a puff and nicotine arriving in the brain", "setting": "smoking a cigarette", "value": "10 to 20", "unit": "s"},
      {"measurement": "plasma nicotine level", "setting": "two minutes after the first cigarette, 2 min", "value": "about 13 μg/l"},
      {"measurement": "potential side effects", "setting": "[1]", "value": "sleep disturbances and nightmares can result"},
      {"measurement": "rate of absorption", "setting": "[2]; nasal", "value": "fast"},
      {"measurement": "time to maximum concentration", "setting": "[2]; nasal", "value": "≤ 10", "unit": "min"},
      {"measurement": "differences for different nasal treatments", "setting": "[2]", "value": "No differences could be found"}
    ]},
    {"compound": "Gentamicin", "values": [
      {"measurement": "absorption with bioadhesive microsphere system", "setting": "[3]", "value": "increase the absorption"}
    ]}
  ]
}
